A short description of series [1]: Aqueous surface tension (Cahn microbalance, sand blasted platinum blade). In kind it is physicochemical. To be noted: 0.1 wt % in 0.005M NaCl water (deionized), 25° C. As for the experimental part: Surface tension was measured using a Cahn microbalance, with a sand blasted platinum blade as the sensor. Solutions of the various components were prepared at 0.1 wt % in 0.005M NaCl water (Deionized), as an equilibrium aid. Aqueous solutions of these unique compositions provide a significant reduction in surface tension relative to conventional surfactants.

Series [2] can be described thus: Spreading of a 10 μL droplet of surfactant solution on polyester film. In kind it is physicochemical. To be noted: 10 μL droplet on polyester film (3M, IR 1140), after 30 seconds. As for the experimental part: Spreading was determined by applying a 10 μL droplet of surfactant solution to a polyester film (3M, IR 1140 transparency film) and measuring the spread diameter after 30 seconds. The solution was applied with an automatic pipette to provide droplets of reproducible volume. Deionized water that was further purified with a Millipore filtration system was used to prepare the surfactant solutions.

For “Me3SiO[MeSi(C3H6O(C2H4O)8H)O]1SiMe3 [SIL-A]”, the “Surface Tension (mN/m)” value in series [1] was found to be 21 mN/m. In addition, the “Spread Diameter (mm) 0.1 wt%” value in series [2] (0.1 wt% solution) was 44 mm. For the same substance, the “Spread Diameter (mm) 0.2 wt%” value in series [2] (0.2 wt% solution) amounted to 42 mm.

Values taken from US6890886B2, “Agricultural compositions employing organosiloxanes containing polyhydric groups” (General Electric Company, priority 2000, dated 2005).
